Reference: patent publication US6743630B2, “Method of preparing a protein array based on biochemical protein-protein interaction” (The Trustees of Columbia University in the City of New York, priority 2002, dated 2004)
No end group written: not given here.

Test system: Fas/FAP-1 binding
Assay: In vitro inhibition assay of Fas/FAP-1 binding (GST-Fas, 35S-labeled FAP-1)
Conditions: 15-mer peptide 1-1000 μM; human PAMP 1 mM; peptides acetylated
Method: 3A. Inhibition assay of Fas/FAP-1 binding using the C-terminal 15 amino acids of Fas. GST-Fas fusion protein (191-355) was used for in vitro binding assay (lane 1, 3-10). GST-Fas fusion protein (191-320) (lane 2) and 1 mM human PAMP (N-terminal 20 amino acids of proadrenomedullin, M. W. 2460.9) (lane 3) were used as negative controls. The concentrations of the C-terminal 15 amino acids added were 1 (lane 4), 3 (lane 5), 10 (lane 6), 30 (lane 7), 100 (lane 8), 300 (lane 9), and 1000 μM (lane 10).
HFAP-10 cDNA (Sato, et al. 1995) subcloned into the Bluescript vector pSK-II (Stratagene) was in vitro-translated from an internal methionine codon in the presence of ^35S-L-methionine using a coupled in vitro transcription/translation system (Promega, TNT lysate) and T7 RNA polymerase. […] After washing vigorously 4 times in the same buffer, associated proteins were recovered with the glutathione-Sepharose beads by centrifugation, eluted into boiling Laemmli buffer, and analyzed by SDS-PAGE and fluorography.
In vitro-translated [^35S ]HFAP-1 was purified with a NAP-5 column (Pharmacia) and incubated with 3 μM of GST-fusion proteins for 16 hours at 4° C. After washing 4 times in the binding buffer, radioactivity incorporation was determined in a β counter. […]

Sequence of Fas/FAP-1 binding (Q12923 1361-1456 limits assumed): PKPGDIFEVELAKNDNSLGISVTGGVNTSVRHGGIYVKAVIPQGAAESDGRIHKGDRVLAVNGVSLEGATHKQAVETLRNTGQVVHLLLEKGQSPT

Substance | inhibitory effect on binding of in vitro-translated FAP-1 to GST-Fas
human PAMP peptide: N-terminal 20 amino acids of proadrenomedullin, negative control (ARLDVASEFRKKWNKWALSR; ends and bridges not checked; UniProt P35318 22-41, looked up) | no effect
synthetic 15 amino acids of Fas: synthetic peptide of the C-terminal 15 amino acids of Fas (Ac-DSENSNFRNEIQSLV) | dramatically reduced and dependent on the concentration
